Reference: patent publication US20260166182A1, “CYANINE-BASED FLUOROPHORES” (The General Hospital Corporation, priority 2022, published 2026)
“Also recorded” adds a separate entry of the source.

Experiments:
[1] = tested on: immune cells from bone marrow and tumor tissues; assay: Flow cytometry analysis of fluorophore-targeted immune cells from bone marrow and tumor; type: in vivo, mouse; settings: 48 h post-injection
Description: Flow cytometry analysis: Bone marrow tissue was mechanically dissociated and digested with collagenase D (175 unit/mL, Roche) and DNase I (100 unit/mL, Roche) followed by EDTA (2 mM, Invitrogen). Erythrocytes were removed using RBC Lysis Buffer (Invitrogen). Tumor tissue was mechanically dissociated and digested with collagenase I (175 unit/mL, Thermo-fisher), Collagenase IV (250 unit/mL, Thermo-fisher, 1700019), and DNase I (100 unit/mL) followed by EDTA ([…]). Immune cells were isolated from cell suspensions of the bone marrow or tumor tissue using Ficoll® Paque Plus (GE Healthcare). Isolated cells were stained with anti-mouse F4/80 (BM8, Biolegend, 123131), anti-mouse Ly-6G (1A8, Biolegend, 127639), anti-mouse Ly-6C(HK1.4, Biolegend, 128011), anti-mouse CD11c (N418, Biolegend, 117313), anti-mouse CD103 (2E7, Biolegend, 121425), anti-mouse I-A/I-E (M5/114.15.2 Biolegend, 107611), anti-mouse/human CD11b (M1/70, Biolegend, 101254) and anti-mouse CD45 antibodies (30-F11, Biolegend, 103105) conjugated to fluorophores. Isolated cells were stained with Live/dead®-Aqua (Life Technologies) to distinguish live cells. Stained cells were fixed using 1% paraformaldehyde prior to analysis. Data acquisition was performed on a Fortessa cytometer (BD) followed by analysis on FlowJo software (Tree Star).

[2] = tested on: lung carcinoma (LLC cell line); assay: NIR-II fluorescence imaging of subcutaneous LLC tumor-bearing C57BL/6 mice; type: in vivo, mouse; settings: for tumor targeting / tumor signal: intravenous, NIR-II imaging until 48 h post-injection
Text: General NIR-II fluorescence imaging: A 640×512-pixel InGaAs camera (Ninox640, Raptor Photonics) and macro zoom lens (0-10×; Navitar Zoom 7000 with SWIR coating) along with 900, 1070, 1100, and 1200 nm long-pass (LP) filters from either Thorlab or Edmund optics were used to collect the NIR-II signal. InGaAs camera played a role as an open-air imaging system along with the support of the FLARE system. An 808 nm fiber-coupled diode laser ([…] at the sample) was used as an excitation source. Data acquisition was done using in-house developed software. […] Mice were imaged with intact skin using InGaAs camera. At least 3 mice were analyzed for each sample. Tumor-bearing mouse models: Animals were housed in an AAALAC-certified facility and were studied under the protocols approved by the MGH IACUC (2016N000136). Mice were maintained under anesthesia with isoflurane and oxygen during the experiment. To establish the various tumor-bearing mouse models including lung carcinoma, pancreatic ductal adenocarcinoma (PDAC), and triple negative breast adenocarcinoma, eight-week-old C57BL/6 mice (Taconic Farms, Germantown, NY) were subcutaneously injected with 2×10^5 LLC, Pan02, and E0771 cells suspended in DMEM/Matrigel (100 μL, 50 v/v %) in the flank region, respectively. Female C57BL/6 mice were used for the breast cancer (E0771) model, otherwise male mice were used. […] Statistical analysis: The fluorescence and background intensities of a region of interest over each tissue were quantified using customized imaging software and ImageJ v1.48 (National Institutes of Health, Bethesda, MD). The signal-to-background ratio (SBR) was calculated as SBR=fluorescence/background, where background was the fluorescence intensity of muscle. Data were reported as mean±s.e.m. with a minimum of three biological replicates. Student's t-test statistical analysis was performed to evaluate the significance of the experimental data. The differences among groups were determined using one-way ANOVA analysis to assess the statistical differences among more than two groups. […] The data was indicated with *p<0.05, ** p<0.01, *** p<0.001, and **** p<0.0001.

LLC tumor = assay: Tumor histopathology with NIR fluorescence microscopy of resected LLC tumors; type: in vivo, mouse; settings: histological NIR images
Description: Tumor histopathology evaluation: […] After rinsing with PBS, the fixed sections were counterstained with nuclear fast red, dehydrated by ethanol, transferred into xylene, and finally mounted according to the standard protocol. To determine the tissue distribution of the NIR fluorophore, the dissected tissues were embedded in Tissue-Tek optimum cutting temperature compound (Sakura Finetek, Torrance, CA) without a pre-fixation step. The tissue block was frozen at −80° C. Frozen sections were cut at a thickness of 10 or 50 μm by a cryostat (Leica, Germany). Then, the tissue sections were stained with hematoxylin and eosin (H&E). The BioTek Cytation 5 (Winooski, VT) was used for pathological fluorescence imaging and observation.

[3] = tested on: serum proteins, mostly albumin; settings: cited from earlier work
[4] = tested on: serum proteins, mostly albumin; assay: Serum protein binding kinetics (size exclusion column); type: in vitro ADME; settings: until 24 h incubation
Description: FIG. 15 Reaction kinetics of SH1, ICG, and IR-780 to serum proteins, mostly albumin. 50 nmol of each dye was mixed with 1 ml of FBS/PBS (pH 7.4) 50/50 v/v %, incubated at 37° C., and analyzed using a BioResolve size exclusion column (200 Å, 2.5 μm, 7.8×300 mm). The binding percentage was calculated by dividing by absorbance of bound dye at 24 h assuming the dyes can bind in maximum capacity in the protein at 24 h.

[5] = Photostability under xenon lamp irradiation; type: physicochemical; settings: ethanol, xenon lamp 150 W, end of 2 h
Description: Optical Study, Photostability, Physicochemical Properties, and DFT Calculation: 1 mM stock solution in DMSO of the synthesized fluorophores was prepared before starting any spectral measurement. Optical properties for the synthesized fluorophores were measured in four different solvents (EtOH, DMSO, HEPES, and PBS). Absorbance spectra were measured in a Varian Cary 50 absorbance spectrophotometer (190-1100 nm). Fluorescence emission and photostability were measured and emission spectra were recorded on a Shimadzu RF-5301PC spectrofluorometer. Physicochemical properties (Log D, molecular mass, TPSA, H bond D/A, polarizability, molecular volume, and rotatable bonds) were predicted by ChemAxon (JChem plugin). Theoretical calculations of frontier molecular orbitals (FMOs) for the optimized structures of selected fluorophores were calculated based on DFT calculations at the B3LYP/6-311G(d,p) level.
In consideration of theranostic (therapeutics and diagnostic) applications, NIR cyanine fluorophores are synthesized for fluorescence imaging, photodynamic therapy (PDT), photothermal therapy (PTT), optoacoustic imaging, and cancer immunotherapy. One of the approaches before using these fluorophores in those applications is to study their biodistribution and clearance pattern in vivo. […] The power density of 150 W is much higher than the required power for fluorescence imaging, considering that the time it takes for a fluorophore to clear from the background and accumulate in sufficient quantities in the targeted tissues is unknown. […] By considering this, an aliquot of the stock solution (1 mM in DMSO) was diluted in ethanol, and the fluorescence intensity was measured at the excitation wavelength same as their absorption maxima (nm). Photodegradation rates were measured every 20 min intervals for the selected fluorophores based on the % reduced fluorescence intensity starting from 100%. […] The data were collected in every 20 min intervals under continuous irradiation with a xenon lamp at 150 W for 2 h and presented based on the % reduced fluorescence intensity starting from 100%. […]

[6] = cited from earlier work

| Structure (SMILES) | positively stained cells across distinct immune cell populations ([1]; bone marrow) [%] | positively stained cells across distinct immune cell populations ([1]; tumor) [%] | nonspecific background signal in biodistribution ([2]; 4 h post-injection) | circulation in the blood stream ([2]; 48 h post-injection) | tumor signal intensity after skin removal ([2]; 48 h post-injection) | tumor targeting / tumor signal [2] | fluorescence signal location in resected tumor (LLC tumor) | time to bind half of the maximum [3] [min] | clearance ([2]; mouse, in vivo) | reaction with serum proteins [4] | photodegradation (% reduced fluorescence intensity) [5] [%] | reference quantum yield ΦICG [6] |
| --- | --- | --- | --- | --- | --- | --- | --- | --- | --- | --- | --- | --- |
| CCCN1/C(=C/C=C2\CCCC(/C=C/C3=[N+](CCC)c4ccccc4C3(C)C)=C2Cl)C(C)(C)c2ccccc21.[I-] [IR-780] | < 22 | < 7 | High nonspecific background signal | strong signals in the blood plasma; also recorded: circulating in the blood stream | significantly decreased after skin removal | accumulating in tumors at early time points around 4 h post-injection | only present in the peritumoral region | ~2 |  |  |  |  |
| CC1(C)C(/C=C/C=C/C=C/C=C2\N(CCCCS(=O)(=O)O)c3ccc4ccccc4c3C2(C)C)=[N+](CCCCS(=O)(=O)[O-])c2ccc3ccccc3c21 [ICG, indocyanine green, reference compound] | < 8 | < 14 |  |  |  | did not show good tumor targeting | barely present in the tumor |  | fast hepatobiliary clearance | did not show any reactions with proteins until 24 h incubation | 41 | 0.043 |
